We go through 26 compounds from US7932270B2 (Cytokinetics, Inc., priority 2006, dated 2011).

In this test the target is T1, chicken gizzard smooth muscle myosin subfragment-1 chemically crosslinked to cardiac or skeletal actin (Gallus gallus, UniProt P10587).
T1 construct: chicken gizzard smooth muscle myosin subfragment-1; from tissue; host or cells: chicken gizzard
Description: Smooth muscle myosin ATPase dose response assay (pyruvate kinase/horseradish peroxidase/pyruvate oxidase-coupled, amplex red fluorescence). Conditions: read-out: IC50 Arithmetic Mean. It counts as biochemical. The method, boiled down:
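Readout is amplex red signal from coupled ATPase of actin-crosslinked gizzard myosin S1 (0.15 mM ATP, 12 mM K-PIPES, pH 7.00). IC50 is the half-maximal activity point of a four-parameter Hill fit.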

T1 sequence (P02607 2-151): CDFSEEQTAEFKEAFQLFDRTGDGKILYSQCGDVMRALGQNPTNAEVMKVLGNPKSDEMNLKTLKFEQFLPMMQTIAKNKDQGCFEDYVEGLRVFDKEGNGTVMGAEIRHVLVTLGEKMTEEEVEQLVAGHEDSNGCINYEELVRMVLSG
T1 sequence (P10587 84-789): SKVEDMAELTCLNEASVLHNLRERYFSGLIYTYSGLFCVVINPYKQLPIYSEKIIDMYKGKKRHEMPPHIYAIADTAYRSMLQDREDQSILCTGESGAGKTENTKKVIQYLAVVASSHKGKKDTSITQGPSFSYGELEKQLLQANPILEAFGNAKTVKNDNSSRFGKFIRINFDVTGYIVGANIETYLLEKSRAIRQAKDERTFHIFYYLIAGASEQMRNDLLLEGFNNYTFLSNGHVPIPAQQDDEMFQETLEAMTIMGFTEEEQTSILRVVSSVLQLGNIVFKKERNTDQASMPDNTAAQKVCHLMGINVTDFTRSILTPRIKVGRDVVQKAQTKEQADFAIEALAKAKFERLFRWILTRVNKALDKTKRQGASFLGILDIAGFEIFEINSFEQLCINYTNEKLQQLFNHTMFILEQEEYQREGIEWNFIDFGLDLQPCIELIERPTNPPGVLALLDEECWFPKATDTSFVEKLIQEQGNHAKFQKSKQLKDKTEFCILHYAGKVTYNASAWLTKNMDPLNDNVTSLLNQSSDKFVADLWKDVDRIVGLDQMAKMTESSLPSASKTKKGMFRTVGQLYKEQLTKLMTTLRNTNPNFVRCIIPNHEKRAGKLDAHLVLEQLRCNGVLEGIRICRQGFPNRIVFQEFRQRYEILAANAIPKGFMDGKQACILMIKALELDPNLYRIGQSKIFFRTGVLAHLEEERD

Take `O=C(NCC1CCNC1=O)c1ccc(-c2cn[nH]c2)nc1NCCc1cccc(F)c1` (centres unmarked) [(2-{[2-(3-fluorophenyl)ethyl]amino}-6-pyrazol-4-yl(3-pyridyl))-N-[(2-oxopyrrolidin-3-yl)methyl]carboxamide]: the IC50 – broadly, the concentration at which inhibition is half-maximal – was 0.18 µM.
Turning to `O=C1CNCC(CNC(=O)c2ccc(-c3cn[nH]c3)nc2NCCc2cccc(F)c2)N1` (centres unmarked) [(2-{[2-(3-fluorophenyl)ethyl]amino}-6-pyrazol-4-yl(3-pyridyl))-N-[(6-oxopiperazin-2-yl)methyl]carboxamide], the IC50 is 0.973 µM.
As for `O=C1CCCCC(CNC(=O)c2ccc(-c3cn[nH]c3)nc2NCCc2cccc(F)c2)N1` (centres unmarked) [(2-{[2-(3-fluorophenyl)ethyl]amino}-6-pyrazol-4-yl(3-pyridyl))-N-[(7-oxoazaperhydroepin-2-yl)methyl]carboxamide], the IC50 was determined as 0.687 µM.
The value for `O=C1CNCC(CNC(=O)c2ccc(-c3ccn[nH]3)nc2NCCc2cccc(F)c2)N1` (centres unmarked) [(2-{[2-(3-fluorophenyl)ethyl]amino}-6-pyrazol-5-yl(3-pyridyl))-N-[(6-oxopiperazin-2-yl)methyl]carboxamide] was 6.95 µM; that for `COc1cccc(CCNc2nc(-c3ccccc3)ccc2C(=O)NCc2cccnc2)c1` [(2-{[2-(3-methoxyphenyl)ethyl]amino}-6-phenyl(3-pyridyl))-N-(3-pyridylmethyl)carboxamide] was 0.269 µM.
Regarding `Cc1cccc(CCNc2nc(-c3ccccc3)ccc2C(=O)NCc2cccnc2)c1` [(2-{[2-(3-methylphenyl)ethyl]amino}-6-phenyl(3-pyridyl))-N-(3-pyridylmethyl)carboxamide], the IC50 worked out at 0.45 µM.
Turning to `C=CCNC(=O)c1ccc(-c2ccccc2)nc1NCCc1cccc(C)c1` [(2-{[2-(3-methylphenyl)ethyl]amino}-6-phenyl(3-pyridyl))-N-prop-2-enylcarboxamide], the IC50 came out at 3.74 µM.
As to `Nc1ccc(CCNc2nc(-c3ccccc3)ccc2C(=O)NCc2cccnc2)cc1` [(2-{[2-(4-aminophenyl)ethyl]amino}-6-phenyl(3-pyridyl))-N-(3-pyridylmethyl)carboxamide], the IC50 was found to be 27.1 µM.
As for `O=C(NCc1cccnc1)c1ccc(-c2ccccc2)nc1NCCc1ccc(Cl)cc1` [(2-{[2-(4-chlorophenyl)ethyl]amino}-6-phenyl(3-pyridyl))-N-(3-pyridylmethyl)carboxamide], the IC50 was 6.68 µM.
Consider `O=C(NCc1cccnc1)c1ccc(-c2ccccc2)nc1NCCc1ccc(F)cc1` [(2-{[2-(4-fluorophenyl)ethyl]amino}-6-phenyl(3-pyridyl))-N-(3-pyridylmethyl)carboxamide], for which the IC50 worked out at 1.61 µM.
Regarding `O=C(NCc1cccnc1)c1ccc(-c2ccccc2)nc1NCCc1ccc(O)cc1` [(2-{[2-(4-hydroxyphenyl)ethyl]amino}-6-phenyl(3-pyridyl))-N-(3-pyridylmethyl)carboxamide], the IC50 worked out at 36.7 µM.
The figure for `O=C(NCc1cccnc1)c1ccc(-c2ccccc2)nc1NCC1(O)CCCCC1` [(2-{[(hydroxycyclohexyl)methyl]amino}-6-phenyl(3-pyridyl))-N-(3-pyridylmethyl)carboxamide] is 7.81 µM; for `CNC(=O)/C=C/c1ccc(-c2ccccc2)nc1NCCc1cccc(F)c1` [(2E)-3-(2-{[2-(3-fluorophenyl)ethyl]amino}-6-phenyl(3-pyridyl))-N-methylprop-2-enamide] it is 57.4 µM.
For `CNC(=O)[C@@H](CO)NC(=O)c1ccc(-c2ccccc2C#N)nc1NCCc1cccc(F)c1` [(2R)-2-[(6-(2-cyanophenyl)-2-{[2-(3-fluorophenyl)ethyl]amino}(3-pyridyl))carbonylamino]-3-hydroxy-N-methylpropanamide], the concentration for half-maximal inhibition (IC50) is 0.544 µM.
The value for `CNC(=O)[C@@H](C)NC(=O)c1ccc(-c2ccccc2C#N)nc1NCCc1cccc(F)c1` [(2R)-2-[(6-(2-cyanophenyl)-2-{[2-(3-fluorophenyl)ethyl]amino}(3-pyridyl))carbonylamino]-N-methylpropanamide] was 1.27 µM; that for `CNC(=O)[C@H](N)CCNC(=O)c1ccc(-c2ccccc2C#N)nc1NCCc1cccc(F)c1` [(2R)-2-amino-4-[(6-(2-cyanophenyl)-2-{[2-(3-fluorophenyl)ethyl]amino}(3-pyridyl))carbonylamino]-N-methylbutanamide] was 12.9 µM; that for `CNC(=O)[C@H](C)CNC(=O)c1cc(F)c(-c2cnn(C)c2)nc1NCCc1cccc(F)c1` [(2R)-3-[(5-fluoro-2-{[2-(3-fluorophenyl)ethyl]amino}-6-(1-methylpyrazol-4-yl)(3-pyridyl))carbonylamino]-2-methyl-N-methylpropanamide] was 0.13 µM.
Regarding `C[C@H](CNC(=O)c1cc(F)c(-c2cnn(C)c2)nc1NCCc1cccc(F)c1)C(=O)O` [(2R)-3-[(5-fluoro-2-{[2-(3-fluorophenyl)ethyl]amino}-6-(1-methylpyrazol-4-yl)(3-pyridyl))carbonylamino]-2-methylpropanoic acid], the IC50 amounted to 3.84 µM.
For the compound `CNC(=O)[C@@H](CN)NC(=O)c1ccc(-c2ccccc2C#N)nc1NCCc1cccc(F)c1` [(2R)-3-amino-2-[(6-(2-cyanophenyl)-2-{[2-(3-fluorophenyl)ethyl]amino}(3-pyridyl))carbonylamino]-N-methylpropanamide], the IC50 was 0.274 µM.
For the compound `N#Cc1ccccc1-c1ccc(C(=O)NC[C@@H](COC(=O)CN)NC(=O)CN)c(NCCc2cccc(F)c2)n1` [(2S)-2-(2-aminoacetylamino)-3-[(6-(2-cyanophenyl)-2-{[2-(3-fluorophenyl)ethyl]amino}(3-pyridyl))carbonylamino]propyl 2-aminoacetate], the IC50 came out at 5.7 µM.
Consider `CNC(=O)[C@H](CNC(=O)c1ccc(-c2ccccc2C#N)nc1NCCc1cccc(F)c1)NC(C)=O` [(2S)-2-(acetylamino)-3-[(6-(2-cyanophenyl)-2-{[2-(3-fluorophenyl)ethyl]amino}(3-pyridyl))carbonylamino]-N-methylpropanamide], for which the IC50 was 5.55 µM.
The figure for `CNC(=O)[C@H](CO)NC(=O)c1ccc(-c2ccccc2C#N)nc1NCCc1cccc(F)c1` [(2S)-2-[(6-(2-cyanophenyl)-2-{[2-(3-fluorophenyl)ethyl]amino}(3-pyridyl))carbonylamino]-3-hydroxy-N-methylpropanamide] is 1.12 µM; for `CNC(=O)[C@H](C)NC(=O)c1ccc(-c2ccccc2C#N)nc1NCCc1cccc(F)c1` [(2S)-2-[(6-(2-cyanophenyl)-2-{[2-(3-fluorophenyl)ethyl]amino}(3-pyridyl))carbonylamino]-N-methylpropanamide] it is 0.985 µM.
On to `CN(C)C(=O)[C@@H](N)CNC(=O)c1ccc(-c2ccccc2C#N)nc1NCCc1cccc(F)c1` [(2S)-2-amino-3-[(6-(2-cyanophenyl)-2-{[2-(3-fluorophenyl)ethyl]amino}(3-pyridyl))carbonylamino]-N,N-dimethylpropanamide], for which the IC50 is 8.18 µM.
For the compound `CNC(=O)[C@@H](N)CNC(=O)c1ccc(-c2ccccc2C#N)nc1NCCc1cccc(F)c1` [(2S)-2-amino-3-[(6-(2-cyanophenyl)-2-{[2-(3-fluorophenyl)ethyl]amino}(3-pyridyl))carbonylamino]-N-methylpropanamide], the IC50 came to 2.32 µM.
As for `N#Cc1ccccc1-c1ccc(C(=O)NC[C@H](N)C(=O)O)c(NCCc2cccc(F)c2)n1` [(2S)-2-amino-3-[(6-(2-cyanophenyl)-2-{[2-(3-fluorophenyl)ethyl]amino}(3-pyridyl))carbonylamino]propanoic acid], the IC50 was determined as 9.76 µM.
